Source: publication PMC7265341, “Quantifying CDK inhibitor selectivity in live cells” (Nature Communications, 2020)
Where two headings read alike, the source gives them in different places.

Legend:
CDK14/Cyclin Y = CDK14/Cyclin Y (Homo sapiens, UniProt O94921); assay: NanoBRET live-cell target engagement, CDK14-NanoLuc/Cyclin Y in HEK-293; assay type: binding; conditions: CDK14/Y
CDK15/Cyclin Y = CDK15/Cyclin Y (Homo sapiens, UniProt Q96Q40); assay: NanoBRET live-cell target engagement, NanoLuc-CDK15/Cyclin Y in HEK-293; assay type: binding; conditions: CDK15/Y
CDK18/Cyclin Y = CDK18/Cyclin Y (Homo sapiens, UniProt Q07002); assay: NanoBRET live-cell target engagement, CDK18-NanoLuc/Cyclin Y in HEK-293; assay type: binding; conditions: CDK18/Y
CDK9/Cyclin K = CDK9/Cyclin K (Homo sapiens, UniProt P50750); assay: NanoBRET live-cell target engagement, NanoLuc-CDK9/Cyclin K in HEK-293; assay type: binding; conditions: CDK9/K
CDK10/Cyclin L2 = CDK10/Cyclin L2 (Homo sapiens, UniProt Q15131); assay: NanoBRET live-cell target engagement, CDK10-NanoLuc/Cyclin L2 in HEK-293; conditions: CDK10/L2
CDK4/Cyclin D1 = CDK4/Cyclin D1 (Homo sapiens, UniProt P11802); assay: NanoBRET live-cell target engagement, NanoLuc-CDK4/Cyclin D1 in HEK-293; assay type: binding; conditions: CDK4/D1
CDK17/Cyclin Y = CDK17/Cyclin Y (Homo sapiens, UniProt Q00537); assay: NanoBRET live-cell target engagement, CDK17-NanoLuc/Cyclin Y in HEK-293; assay type: binding; conditions: CDK17/Y
CDK2/Cyclin E1 = CDK2/Cyclin E1 (Homo sapiens, UniProt P24941); assay: NanoBRET live-cell target engagement, CDK2-NanoLuc/Cyclin E1 in HEK-293; assay type: binding; conditions: CDK2/E1; for IC50: read-out: IC50
CDK11B/Cyclin L2 = CDK11B/Cyclin L2 (Homo sapiens, UniProt P21127); assay: NanoBRET live-cell target engagement, CDK11B-NanoLuc/Cyclin L2 in HEK-293; assay type: binding; conditions: CDK11b/L2
CDK6/Cyclin D1 = CDK6/Cyclin D1 (Homo sapiens, UniProt Q00534); assay: NanoBRET live-cell target engagement, NanoLuc-CDK6/Cyclin D1 in HEK-293; assay type: binding; conditions: CDK6/D1
CDK16/Cyclin Y = CDK16/Cyclin Y (Homo sapiens, UniProt Q00536); assay: NanoBRET live-cell target engagement, CDK16-NanoLuc/Cyclin Y in HEK-293; assay type: binding; conditions: CDK16/Y
CDK12/Cyclin K = CDK12/Cyclin K (Homo sapiens, UniProt Q9NYV4); assay: NanoBRET live-cell target engagement, CDK12-NanoLuc/Cyclin K in HEK-293; assay type: binding; conditions: CDK12/K
CDK8/Cyclin C = CDK8/Cyclin C (Homo sapiens, UniProt P49336); assay: NanoBRET live-cell target engagement, NanoLuc-CDK8/Cyclin C in HEK-293; assay type: binding; conditions: CDK8/C; for IC50: read-out: IC50
CDK5/CDK5R1 = CDK5/CDK5R1 (Homo sapiens, UniProt Q00535); assay: NanoBRET live-cell target engagement, CDK5-NanoLuc/CDK5R1 in HEK-293; assay type: binding; conditions: CDK5/CDK5R1; for IC50: read-out: IC50
CDK11A/Cyclin L2 = target: T1, CDK11A/Cyclin L2 (Homo sapiens, UniProt Q9UQ88); assay: NanoBRET live-cell target engagement, CDK11A-NanoLuc/Cyclin L2 in HEK-293; assay type: binding; conditions: CDK11a/L2
T1 sequence (Q9UQ88 1-783): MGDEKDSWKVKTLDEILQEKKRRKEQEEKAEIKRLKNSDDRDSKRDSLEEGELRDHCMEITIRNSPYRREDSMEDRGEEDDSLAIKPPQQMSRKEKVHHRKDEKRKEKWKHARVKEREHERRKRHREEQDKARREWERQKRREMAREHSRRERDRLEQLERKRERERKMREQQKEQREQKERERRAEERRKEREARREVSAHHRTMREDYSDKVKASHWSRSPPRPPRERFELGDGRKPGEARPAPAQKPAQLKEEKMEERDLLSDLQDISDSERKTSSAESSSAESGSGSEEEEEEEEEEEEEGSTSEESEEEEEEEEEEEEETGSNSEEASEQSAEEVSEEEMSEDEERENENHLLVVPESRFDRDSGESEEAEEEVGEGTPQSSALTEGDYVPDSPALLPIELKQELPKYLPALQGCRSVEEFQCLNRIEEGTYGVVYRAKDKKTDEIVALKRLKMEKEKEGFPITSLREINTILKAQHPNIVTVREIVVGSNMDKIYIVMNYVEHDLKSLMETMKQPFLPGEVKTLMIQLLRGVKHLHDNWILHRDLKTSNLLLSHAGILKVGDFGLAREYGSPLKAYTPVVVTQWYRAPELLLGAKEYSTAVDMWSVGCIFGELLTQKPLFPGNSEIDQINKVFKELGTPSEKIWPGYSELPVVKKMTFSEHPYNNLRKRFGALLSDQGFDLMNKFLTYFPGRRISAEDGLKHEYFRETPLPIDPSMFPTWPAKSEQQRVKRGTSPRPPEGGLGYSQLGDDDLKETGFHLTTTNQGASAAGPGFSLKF

CDK20/Cyclin H = CDK20/Cyclin H (Homo sapiens, UniProt Q8IZL9); assay: NanoBRET live-cell target engagement, NanoLuc-CDK20/Cyclin H in HEK-293; assay type: binding; conditions: CDK20/H
CDK1/Cyclin E1 = CDK1/Cyclin E1 (Homo sapiens, UniProt P06493); assay: NanoBRET live-cell target engagement, CDK1-NanoLuc/Cyclin E1 in HEK-293; assay type: binding; conditions: CDK1/E1; for IC50: read-out: IC50
CDK13/Cyclin K = CDK13/Cyclin K (Homo sapiens, UniProt Q14004); assay: NanoBRET live-cell target engagement, CDK13-NanoLuc/Cyclin K in HEK-293; assay type: binding; conditions: CDK13/K
CDK19/Cyclin C = CDK19/Cyclin C (Homo sapiens, UniProt Q9BWU1); assay: NanoBRET live-cell target engagement, NanoLuc-CDK19/Cyclin C in HEK-293; conditions: CDK19/C

Chain of CDK18/Cyclin Y (Q07002 whole entry): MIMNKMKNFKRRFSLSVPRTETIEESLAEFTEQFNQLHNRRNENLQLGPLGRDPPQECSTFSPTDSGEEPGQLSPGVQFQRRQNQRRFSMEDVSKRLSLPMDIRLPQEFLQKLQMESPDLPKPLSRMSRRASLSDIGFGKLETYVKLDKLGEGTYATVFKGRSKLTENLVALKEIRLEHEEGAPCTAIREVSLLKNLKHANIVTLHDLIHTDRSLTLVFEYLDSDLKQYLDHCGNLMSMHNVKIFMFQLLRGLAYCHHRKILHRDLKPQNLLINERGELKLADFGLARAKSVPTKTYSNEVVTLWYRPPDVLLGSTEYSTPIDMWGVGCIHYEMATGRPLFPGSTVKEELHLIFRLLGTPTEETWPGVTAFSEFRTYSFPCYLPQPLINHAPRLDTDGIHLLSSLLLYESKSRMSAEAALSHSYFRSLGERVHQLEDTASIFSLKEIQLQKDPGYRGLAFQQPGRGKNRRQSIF
Chain of CDK18/Cyclin Y (Q8ND76 whole entry partner): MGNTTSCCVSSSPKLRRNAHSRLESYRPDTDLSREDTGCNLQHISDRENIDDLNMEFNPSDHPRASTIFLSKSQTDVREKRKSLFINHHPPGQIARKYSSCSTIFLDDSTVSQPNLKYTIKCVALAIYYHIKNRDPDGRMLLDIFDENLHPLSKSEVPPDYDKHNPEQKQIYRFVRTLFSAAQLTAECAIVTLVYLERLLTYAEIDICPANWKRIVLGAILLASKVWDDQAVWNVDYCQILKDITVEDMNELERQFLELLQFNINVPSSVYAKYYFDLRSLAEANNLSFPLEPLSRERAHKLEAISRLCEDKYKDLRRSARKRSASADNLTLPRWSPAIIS
Chain of CDK10/Cyclin L2 (Q15131 whole entry): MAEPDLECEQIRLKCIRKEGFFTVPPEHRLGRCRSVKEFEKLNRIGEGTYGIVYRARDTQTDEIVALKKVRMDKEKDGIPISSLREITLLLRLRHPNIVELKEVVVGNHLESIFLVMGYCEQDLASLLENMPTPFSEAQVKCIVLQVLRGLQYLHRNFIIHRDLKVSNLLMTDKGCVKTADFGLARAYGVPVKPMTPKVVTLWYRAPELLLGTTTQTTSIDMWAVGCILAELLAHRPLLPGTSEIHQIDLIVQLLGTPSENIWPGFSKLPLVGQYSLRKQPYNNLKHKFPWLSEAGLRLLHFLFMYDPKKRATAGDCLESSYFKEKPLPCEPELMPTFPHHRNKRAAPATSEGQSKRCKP
Chain of CDK1/Cyclin E1 (P06493 whole entry): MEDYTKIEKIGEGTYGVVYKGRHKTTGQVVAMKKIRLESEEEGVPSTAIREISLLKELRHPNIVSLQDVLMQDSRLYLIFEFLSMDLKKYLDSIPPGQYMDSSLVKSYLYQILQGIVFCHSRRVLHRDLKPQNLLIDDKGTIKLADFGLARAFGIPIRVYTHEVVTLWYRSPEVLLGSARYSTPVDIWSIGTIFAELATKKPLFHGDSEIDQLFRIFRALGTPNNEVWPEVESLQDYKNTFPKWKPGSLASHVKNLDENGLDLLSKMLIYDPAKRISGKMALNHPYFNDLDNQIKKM
Chain of CDK1/Cyclin E1 (P24864 whole entry partner): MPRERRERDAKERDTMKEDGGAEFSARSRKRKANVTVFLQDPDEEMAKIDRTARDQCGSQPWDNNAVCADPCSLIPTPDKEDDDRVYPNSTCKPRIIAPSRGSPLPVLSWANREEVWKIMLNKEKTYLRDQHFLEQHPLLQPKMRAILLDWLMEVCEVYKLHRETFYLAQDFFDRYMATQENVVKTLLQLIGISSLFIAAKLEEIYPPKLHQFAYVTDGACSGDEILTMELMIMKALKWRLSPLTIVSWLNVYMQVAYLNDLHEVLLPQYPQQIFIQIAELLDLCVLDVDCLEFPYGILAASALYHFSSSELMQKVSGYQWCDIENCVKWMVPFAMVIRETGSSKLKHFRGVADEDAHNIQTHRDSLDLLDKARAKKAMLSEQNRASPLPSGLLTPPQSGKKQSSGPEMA
Chain of CDK9/Cyclin K (P50750 whole entry): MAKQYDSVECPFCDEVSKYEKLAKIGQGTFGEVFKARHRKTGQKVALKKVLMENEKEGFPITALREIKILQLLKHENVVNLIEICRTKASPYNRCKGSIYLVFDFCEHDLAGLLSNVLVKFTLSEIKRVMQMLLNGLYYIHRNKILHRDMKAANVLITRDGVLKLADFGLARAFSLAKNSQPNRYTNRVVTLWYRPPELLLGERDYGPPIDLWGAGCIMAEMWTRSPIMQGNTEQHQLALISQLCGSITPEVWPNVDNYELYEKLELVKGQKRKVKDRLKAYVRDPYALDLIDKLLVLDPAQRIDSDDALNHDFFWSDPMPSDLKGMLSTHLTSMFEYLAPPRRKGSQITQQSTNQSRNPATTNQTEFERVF
Chain of CDK9/Cyclin K (O75909 whole entry partner): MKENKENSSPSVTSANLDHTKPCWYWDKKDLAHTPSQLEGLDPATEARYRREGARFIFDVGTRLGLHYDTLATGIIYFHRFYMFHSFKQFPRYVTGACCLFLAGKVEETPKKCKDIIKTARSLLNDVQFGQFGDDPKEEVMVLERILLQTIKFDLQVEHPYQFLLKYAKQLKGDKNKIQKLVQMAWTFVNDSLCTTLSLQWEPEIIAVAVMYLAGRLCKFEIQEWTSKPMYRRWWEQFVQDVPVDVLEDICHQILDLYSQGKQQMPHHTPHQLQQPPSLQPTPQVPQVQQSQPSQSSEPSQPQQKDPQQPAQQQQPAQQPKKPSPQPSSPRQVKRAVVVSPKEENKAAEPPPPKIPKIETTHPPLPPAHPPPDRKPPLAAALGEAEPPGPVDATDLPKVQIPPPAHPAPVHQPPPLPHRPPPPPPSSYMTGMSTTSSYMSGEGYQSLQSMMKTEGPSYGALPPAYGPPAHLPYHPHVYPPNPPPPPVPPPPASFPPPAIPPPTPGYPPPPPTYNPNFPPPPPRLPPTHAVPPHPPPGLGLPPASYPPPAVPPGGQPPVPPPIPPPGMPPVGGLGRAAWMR
Chain of CDK11B/Cyclin L2 (P21127 1-782 isoform P21127-2): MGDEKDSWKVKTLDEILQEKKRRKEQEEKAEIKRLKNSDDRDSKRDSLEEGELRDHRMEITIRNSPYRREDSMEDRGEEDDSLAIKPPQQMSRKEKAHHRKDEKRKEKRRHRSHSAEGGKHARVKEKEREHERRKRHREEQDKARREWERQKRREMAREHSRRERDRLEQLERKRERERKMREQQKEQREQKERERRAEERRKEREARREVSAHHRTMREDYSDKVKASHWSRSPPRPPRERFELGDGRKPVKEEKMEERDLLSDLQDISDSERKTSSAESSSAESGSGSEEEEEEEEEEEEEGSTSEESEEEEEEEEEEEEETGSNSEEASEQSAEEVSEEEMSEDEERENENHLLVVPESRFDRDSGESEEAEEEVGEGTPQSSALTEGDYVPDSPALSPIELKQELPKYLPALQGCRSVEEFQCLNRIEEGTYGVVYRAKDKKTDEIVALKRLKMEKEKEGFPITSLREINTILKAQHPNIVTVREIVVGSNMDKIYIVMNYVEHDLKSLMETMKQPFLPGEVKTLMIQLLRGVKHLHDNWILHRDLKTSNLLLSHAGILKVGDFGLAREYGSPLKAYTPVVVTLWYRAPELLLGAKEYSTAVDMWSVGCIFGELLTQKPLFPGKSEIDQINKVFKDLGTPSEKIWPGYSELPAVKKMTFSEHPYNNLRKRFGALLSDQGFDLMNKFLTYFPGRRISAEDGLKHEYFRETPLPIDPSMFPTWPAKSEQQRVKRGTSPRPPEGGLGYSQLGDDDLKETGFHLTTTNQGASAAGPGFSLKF
Chain of CDK6/Cyclin D1 (Q00534 whole entry): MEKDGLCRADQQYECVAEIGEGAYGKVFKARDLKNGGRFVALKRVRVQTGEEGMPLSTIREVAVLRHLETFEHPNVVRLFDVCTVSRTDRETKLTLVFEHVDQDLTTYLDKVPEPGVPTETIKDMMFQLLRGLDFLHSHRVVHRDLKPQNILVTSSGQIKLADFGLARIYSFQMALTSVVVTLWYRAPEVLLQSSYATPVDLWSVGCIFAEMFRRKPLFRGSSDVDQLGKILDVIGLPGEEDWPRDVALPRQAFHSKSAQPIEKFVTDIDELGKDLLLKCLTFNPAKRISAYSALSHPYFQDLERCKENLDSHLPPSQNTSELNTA
Chain of CDK6/Cyclin D1 (P24385 whole entry partner): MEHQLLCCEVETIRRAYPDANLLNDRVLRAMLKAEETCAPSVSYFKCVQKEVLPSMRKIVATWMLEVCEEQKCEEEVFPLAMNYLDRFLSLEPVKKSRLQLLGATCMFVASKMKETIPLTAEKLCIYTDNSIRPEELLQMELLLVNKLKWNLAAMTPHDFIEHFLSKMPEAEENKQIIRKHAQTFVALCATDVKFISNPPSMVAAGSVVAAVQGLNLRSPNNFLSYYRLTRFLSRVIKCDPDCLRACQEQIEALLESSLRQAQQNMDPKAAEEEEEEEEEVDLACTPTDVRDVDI
Chain of CDK17/Cyclin Y (Q00537 whole entry): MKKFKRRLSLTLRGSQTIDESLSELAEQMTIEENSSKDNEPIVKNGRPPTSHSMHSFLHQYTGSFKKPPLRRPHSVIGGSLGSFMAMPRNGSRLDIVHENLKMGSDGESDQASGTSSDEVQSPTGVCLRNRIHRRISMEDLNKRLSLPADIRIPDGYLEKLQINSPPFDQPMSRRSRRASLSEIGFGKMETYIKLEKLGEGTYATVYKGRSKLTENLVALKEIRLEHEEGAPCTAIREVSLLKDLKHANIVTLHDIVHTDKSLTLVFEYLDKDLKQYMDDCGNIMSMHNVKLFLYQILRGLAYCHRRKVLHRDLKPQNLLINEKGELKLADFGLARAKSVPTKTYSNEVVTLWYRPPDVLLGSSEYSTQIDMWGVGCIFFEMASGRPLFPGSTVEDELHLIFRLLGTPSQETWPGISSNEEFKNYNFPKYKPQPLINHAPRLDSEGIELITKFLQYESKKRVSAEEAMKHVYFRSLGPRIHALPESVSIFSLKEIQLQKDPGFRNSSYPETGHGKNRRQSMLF
Chain of CDK17/Cyclin Y (Q8ND76 whole entry partner): as the sequence (Q8ND76 whole entry partner) above

CCn1cnc2c(Nc3cccc(Cl)c3)nc(N[C@@H]3CCCC[C@@H]3N)nc21 [CGP74514A]
Inhibition at 10µM (%) (CDK14/Cyclin Y; average): 63.7%
Inhibition at 10µM (%) (CDK14/Cyclin Y; experiment 1): 59.7%
Inhibition at 10µM (%) (CDK14/Cyclin Y; experiment 2): 67.6%
Inhibition at 10µM (%) (CDK15/Cyclin Y; average): 85.2%
Inhibition at 10µM (%) (CDK15/Cyclin Y; experiment 1): 84.1%
Inhibition at 10µM (%) (CDK15/Cyclin Y; experiment 2): 86.4%
Inhibition at 10µM (%) (CDK18/Cyclin Y; average): 86.9%
Inhibition at 10µM (%) (CDK18/Cyclin Y; experiment 1): 81.1%
Inhibition at 10µM (%) (CDK18/Cyclin Y; experiment 2): 92.6%
Inhibition at 10µM (%) (CDK9/Cyclin K; average): 71.1%
Inhibition at 10µM (%) (CDK9/Cyclin K; experiment 1): 68.0%
Inhibition at 10µM (%) (CDK9/Cyclin K; experiment 2): 74.2%
Inhibition at 10µM (%) (CDK10/Cyclin L2; average): 40.2%
Inhibition at 10µM (%) (CDK10/Cyclin L2; experiment 1): 37.4%
Inhibition at 10µM (%) (CDK10/Cyclin L2; experiment 2): 42.9%
Inhibition at 10µM (%) (CDK4/Cyclin D1; average): 72.2%
Inhibition at 10µM (%) (CDK4/Cyclin D1; experiment 1): 63.2%
Inhibition at 10µM (%) (CDK4/Cyclin D1; experiment 2): 81.2%
Inhibition at 10µM (%) (CDK17/Cyclin Y; average): 80.2%
Inhibition at 10µM (%) (CDK17/Cyclin Y; experiment 1): 79.4%
Inhibition at 10µM (%) (CDK17/Cyclin Y; experiment 2): 81.0%
Inhibition at 10µM (%) (CDK2/Cyclin E1; average): 94.2%
IC50 (CDK2/Cyclin E1; average (± SEM where n=3)): 62 nM
Inhibition at 10µM (%) (CDK2/Cyclin E1; experiment 1): 93.3%
IC50 (CDK2/Cyclin E1; experiment 1): 63 nM
Inhibition at 10µM (%) (CDK2/Cyclin E1; experiment 2): 95.2%
IC50 (CDK2/Cyclin E1; experiment 2): 60 nM
Inhibition at 10µM (%) (CDK11B/Cyclin L2; average): 21.5%
Inhibition at 10µM (%) (CDK11B/Cyclin L2; experiment 1): 20.4%
Inhibition at 10µM (%) (CDK11B/Cyclin L2; experiment 2): 22.7%
Inhibition at 10µM (%) (CDK6/Cyclin D1; average): 58.7%
Inhibition at 10µM (%) (CDK6/Cyclin D1; experiment 1): 51.0%
Inhibition at 10µM (%) (CDK6/Cyclin D1; experiment 2): 66.5%
Inhibition at 10µM (%) (CDK16/Cyclin Y; experiment 1): 76.4%
Inhibition at 10µM (%) (CDK16/Cyclin Y; experiment 2): 76.7%
Inhibition at 10µM (%) (CDK12/Cyclin K; average): 36.8%
Inhibition at 10µM (%) (CDK12/Cyclin K; experiment 1): 42.2%
Inhibition at 10µM (%) (CDK12/Cyclin K; experiment 2): 31.4%
Inhibition at 10µM (%) (CDK8/Cyclin C; average): 3.2%
IC50 (CDK8/Cyclin C; average (± SEM where n=3)): 260 nM
Inhibition at 10µM (%) (CDK8/Cyclin C; experiment 1): 5.8%
IC50 (CDK8/Cyclin C; experiment 1): 290 nM
Inhibition at 10µM (%) (CDK8/Cyclin C; experiment 2): 0.659%
IC50 (CDK8/Cyclin C; experiment 2): 230 nM
Inhibition at 10µM (%) (CDK5/CDK5R1; average): 93.3%
IC50 (CDK5/CDK5R1; average (± SEM where n=3)): 100 nM
Inhibition at 10µM (%) (CDK5/CDK5R1; experiment 1): 90.4%
IC50 (CDK5/CDK5R1; experiment 1): 74 nM
Inhibition at 10µM (%) (CDK5/CDK5R1; experiment 2): 96.2%
IC50 (CDK5/CDK5R1; experiment 2): 130 nM
Inhibition at 10µM (%) (CDK11A/Cyclin L2; average): 29.9%
Inhibition at 10µM (%) (CDK11A/Cyclin L2; experiment 1): 16.5%
Inhibition at 10µM (%) (CDK11A/Cyclin L2; experiment 2): 43.3%
Inhibition at 10µM (%) (CDK20/Cyclin H; experiment 1): 40.4%
Inhibition at 10µM (%) (CDK20/Cyclin H; experiment 2): 47.3%
Inhibition at 10µM (%) (CDK1/Cyclin E1; average): 78.9%
IC50 (CDK1/Cyclin E1; average (± SEM where n=3)): 130 nM
Inhibition at 10µM (%) (CDK1/Cyclin E1; experiment 1): 77.7%
IC50 (CDK1/Cyclin E1; experiment 1): 100 nM
Inhibition at 10µM (%) (CDK1/Cyclin E1; experiment 2): 80.1%
IC50 (CDK1/Cyclin E1; experiment 2): 163 nM
Inhibition at 10µM (%) (CDK13/Cyclin K; average): 35.2%
Inhibition at 10µM (%) (CDK13/Cyclin K; experiment 1): 36.4%
Inhibition at 10µM (%) (CDK13/Cyclin K; experiment 2): 33.9%
Inhibition at 10µM (%) (CDK19/Cyclin C; average): 9.3%
Inhibition at 10µM (%) (CDK19/Cyclin C; experiment 1): 26.1%
Inhibition at 10µM (%) (CDK19/Cyclin C; experiment 2): -7.5%
